# According to patent publication US8673852B2, “Methods of treating neuronal disorders using MNTF peptides and analogs thereof” (Genervon Biopharmaceuticals, LLC, priority 2006, dated 2014):
# Like-named read-outs stand apart in the source and are kept apart here. Ends that are not written are not given here.
# Key:
# Safety in animal studies = type: in vivo; details: over 1000 Sprague Dawley rats and 15 of both wobbler mice and normal littermates
# [1] = GM6 levels in brain by competitive ELISA after IV injection (blood brain barrier penetration); type: in vivo, C57BL/6 mice; details: for increase in GM6 in the brain vs vehicle: 4 hours; for level at time molar at 4 h: male, C57BL/6, mouse, WT mice, brain collected 4 hours later, read-out: ELISA MNTF (μM) in the brain
# Protocol: (§1) C57BL6 mice were injected with GM6 at the indicated doses and examined for GM6 in the brain. Half of the brain was taken for immunocytochemical analysis for GM6, the other half (brain) was frozen for ELISA analysis.
# (§2) Animals were acclimated for 1 week prior to experimentation. The animals were bolus i.v. dosed via tail vein with vehicle or GM6 at 0.2 or 2 mg/kg. […] Vehicle control received saline solution.
# To measure GM6 levels in samples using the competitive ELISA kit. Affinity purified rabbit anti-6Mer was coated on ELISA plate at 10 ug/ml in coating buffer. 6Mer-biotin was used at 1 uM (final dilution) in the assay. The known concentrations of GM6 (competitor) were used as reference standards starting from 80 uM and titrating 2-fold down 0.625 uM in the test for establishing standard curve. Concentration of tested samples was estimated from their OD450 observation based on the standard curve.
# The brain tissue was prepared in cell lysis buffer containing 100 mM Tris HCl, pH 7.0, containing 2% BSA, 1 M NaCl, 4 mM EDTA, 2% Triton X-100, 0.1% sodium azide and protease inhibitors (Complete™, Mini, Boehringer Mannheim). Homogenates were prepared in 10 volumes of buffer to tissue wet weight. The homogenates were centrifuged for 30 minutes at 14,000×g. The resulting supernatant was used for ELISA with the appropriate volume adjustment.
# For the assay, the anti-6Mer pAb was diluted to 10 ug/ml in ELISA coating buffer. The 96-well micro-titer plates were coated with 100 ul/well of the diluted pAb. The plates were covered and kept refrigerated overnight. Next day, the plates were blocked with 200 ul/well TBS with 3% BSA, and kept at RT for 60 min. The plates were washed 3× with TBST (TBS+0.05% Tween 20). For each plate, 10 ml 1 uM 6Mer-biotin and make 1 ml standard mix was prepared: 1 uM 6Mer-biotin with 80 uM 6Mer. For each plate, lanes 1 and 2 were used for the standard curve. 1 uM 6Mer-biotin (100 μl) was added to all wells except A1 and A2 and 200 ul/well of standard mix was added to A1 and A2. A serial 2-fold dilution from wells A1 and A2 down to wells H1 and H2 was performed by taking out 100 ul sample from each well and mix it with next well—pipetting up and down at least 8 times. The extra 100 ul at the final wells (H1 and H2) was discarded. Test samples (brain homogenate) was diluted in Ab dilution buffer and mixed at a 1:50 with the 1 uM 6Mer-biotin. The plate was mixed on a shaker at 400 rpm for 2 hours at RT. The samples were washed 6× with TBST. Streptavidin-HRP (10 ml per plate) solution was prepared by diluting Streptavidin-HRP to 1:2000 in Ab dilution buffer. The plate was mixed on the shaker for another 1 hour at RT. The samples were wash 8× with TBST. […] The reaction was stopped with 50 ul 1M HCl. and read OD450 immediately.
# [2] = Immunocytochemical analysis of brain for GM6 with anti-6mer antibody; type: in vivo, C57BL/6 mice; details: 0.2 or 2 mg/kg IV
# Protocol: as §1, §2
# The immunocytochemical stained area in each section was determined with a computer-assisted image analysis system, consisting of a Power Macintosh computer equipped with a Quick Capture frame grabber card, Hitachi CCD camera mounted on an Olympus microscope and camera stand. NIH Image Analysis Software, v. 1.55 was used. The images were captured and the total area of GM6 peptide was determined over the ten sections.
# [3] = test system: permanent middle cerebral artery occlusion (MCAO) rat model; experiment: Permanent middle cerebral artery occlusion (MCAO) rat model, 28 days; details: 2.5, 10 or 20 mg/kg IV
# [4] = test system: middle cerebral artery occlusion (MCAO) mouse model; experiment: MCAO mouse model, 1 hour ischemia and 14 days reperfusion, time of first dose varied; type: in vivo, C57BL/6 mice; details: 5 mg/kg IV
# Protocol: (§3) The MABP and heart rate was recorded using a Visitech System blood pressure monitor.
# Formulation of GM602 (CS Bio Co., Menlo Park, Calif., CS1507, GMP013, lot C811) was performed by NTS as a stock solution by reconstituting GM602 with (100%) saline that was stored at 4° C. Vehicle control received saline solution. The bolus IV injections via tail with GM602 was initiated at times of 0, 3, 6, 12 and 24 hours after the start of reperfusion and subsequently every day for 3 days following injury.
# (§4) This study involved a transient model of ischemia. […] After the nylon suture was in place for 1 hour, it was pulled back into the ECA and the incision closed.
# . […] The brains were removed and chilled for 15 minutes at −20° C. before being placed in a Rodent Brain Matrix. Coronal sections (1-mm thickness) were prepared and subjected to 2% triphenyltetrazolium chloride (TTC) staining at 37° C. Seven serial one-mm thick coronal sections through the rostral to caudal extent of the infarction were obtained from each brain, beginning two-mm from the frontal pole. […] The infarct area in each section was determined with a computer-assisted image analysis system, consisting of a Power Macintosh computer equipped with a Quick Capture frame grabber card, Hitachi CCD camera mounted on an Olympus microscope and camera stand. […] The images were captured and the total area of damage determined over the seven sections.
# [5] = test system: middle cerebral artery occlusion (MCAO) mouse model; experiment: Middle cerebral artery occlusion (MCAO) mouse model, 1 hour ischemia and 24 hours reperfusion; type: in vivo, C57BL/6 mice; details: 1 or 5 mg/kg IV single dose
# Protocol: as §3
# All animals were subjected to 1.0 h ischemia followed by 24 h reperfusion. […] Vehicle control received saline solution.
# as §4
# . The brains were transcardially perfused with 4 degree C., 10% phosphate-buffered saline (PBS). The brains were removed and chilled for 15 minutes at −20 degree C. before being placed in a Rodent Brain Matrix. Coronal sections (1-mm thickness) were prepared and subjected to 2% triphenyltetrazolium chloride (TTC) staining at 37 degree C. Seven serial one-mm thick coronal sections through the rostral to caudal extent of the infarction were obtained from each brain, beginning two-mm from the frontal pole. The TTC stained sections were placed in 10% neutral buffered formalin and kept in darkness at 4° C. for at least 24 hours. The infarct area in each section was determined with a computer-assisted image analysis system, consisting of a Power Macintosh computer equipped with a Quick Capture frame grabber card, Hitachi CCD camera mounted on an Olympus microscope and camera stand. NIH Image Analysis Software, v. 1.55 was used. The images were captured and the total area of damage determined over the seven sections.
substance,measurement,setting,value
"FSRYAR [GM6, FSRYAR]",safety problems in animal studies,Safety in animal studies,No safety problems were identified
same,increase in GM6 in the brain vs vehicle,[1]; 0.2 mg/kg IV bolus,400%
same,increase in GM6 in the brain vs vehicle,[1]; 2 mg/kg IV bolus,3000%
same,level at time molar at 4 h,[1]; 0.2 mg/kg IV bolus,1.76 µM
same,level at time molar at 4 h,[1]; 2 mg/kg IV bolus,12.9 µM
same,immunoreactivity for GM6 in brain tissue,[2],No immunoreactivity was detected
same,"changes in HR, BP, pO2, pCO2, or pH",[3],no changes
same,"changes in CBF, HR, BP, pO2, pCO2, or pH",[4],no changes
same,"changes in HR, BP, pO2, pCO2, or pH",[5],no changes
